Reference: PMC10905675, “INX-315, a Selective CDK2 Inhibitor, Induces Cell Cycle Arrest and Senescence in Solid Tumors” (Cancer Discovery, 2023)

Key:
Test in all cases: SelectScreen ZLYTE
Type in all cases: biochemical
Details in all cases: INX-0315 at 100nM
[1] = target: T1, ABL1 F317L (Homo sapiens, UniProt P00519, F317L)
T1 construct: purchased Thermo Fisher Scientific SelectScreen (plus Nanosyn / Reaction Biology for CDK/cyclin lines)
Outline: (§1)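 Screening in two stages: one concentration of inhibitor (100 nmol/L; 1% DMSO), then a ten-point series from 1 µmol/L to 0.0495 nmol/L. Conditions were those fixed in advance by the provider.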

[2] = target: T2, ADRBK1 (GRK2) (Homo sapiens, UniProt P25098)
T2 construct: purchased Thermo Fisher Scientific SelectScreen (plus Nanosyn / Reaction Biology for CDK/cyclin lines)
Outline: as §1

[3] = target: T3, AKT2 (PKB beta) (Homo sapiens, UniProt P31751)
T3 construct: purchased Thermo Fisher Scientific SelectScreen (plus Nanosyn / Reaction Biology for CDK/cyclin lines)
T3 sequence (P31751 whole entry): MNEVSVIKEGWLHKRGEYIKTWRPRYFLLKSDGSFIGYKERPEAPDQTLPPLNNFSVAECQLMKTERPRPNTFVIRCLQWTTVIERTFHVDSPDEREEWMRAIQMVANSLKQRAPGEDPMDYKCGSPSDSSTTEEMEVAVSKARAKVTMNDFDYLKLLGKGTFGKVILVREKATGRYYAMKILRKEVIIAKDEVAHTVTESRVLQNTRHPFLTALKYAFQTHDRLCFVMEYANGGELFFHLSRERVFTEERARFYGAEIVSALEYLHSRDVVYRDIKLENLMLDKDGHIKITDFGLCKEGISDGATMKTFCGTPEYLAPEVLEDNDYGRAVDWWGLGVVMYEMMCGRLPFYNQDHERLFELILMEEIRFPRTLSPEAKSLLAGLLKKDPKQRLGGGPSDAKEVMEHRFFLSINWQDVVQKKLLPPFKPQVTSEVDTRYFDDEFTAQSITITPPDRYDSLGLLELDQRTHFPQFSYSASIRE
Outline: as §1

[4] = target: T4, AKT3 (PKB gamma) (Homo sapiens, UniProt Q9Y243)
T4 construct: purchased Thermo Fisher Scientific SelectScreen (plus Nanosyn / Reaction Biology for CDK/cyclin lines)
Outline: as §1

[5] = target: T5, AURKC (Aurora C) (Homo sapiens, UniProt Q9UQB9)
T5 construct: purchased Thermo Fisher Scientific SelectScreen (plus Nanosyn / Reaction Biology for CDK/cyclin lines)
T5 sequence (Q9UQB9 whole entry): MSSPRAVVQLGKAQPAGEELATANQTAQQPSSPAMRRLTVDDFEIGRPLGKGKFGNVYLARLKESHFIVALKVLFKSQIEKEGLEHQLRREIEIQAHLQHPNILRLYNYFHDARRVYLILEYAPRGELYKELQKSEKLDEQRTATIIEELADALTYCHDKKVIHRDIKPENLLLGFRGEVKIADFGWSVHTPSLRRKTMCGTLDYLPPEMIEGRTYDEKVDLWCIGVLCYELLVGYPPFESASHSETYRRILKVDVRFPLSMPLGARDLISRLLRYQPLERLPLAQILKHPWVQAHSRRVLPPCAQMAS
Outline: as §1

[6] = target: T6, AXL (Homo sapiens, UniProt P30530)
T6 construct: purchased Thermo Fisher Scientific SelectScreen (plus Nanosyn / Reaction Biology for CDK/cyclin lines)
Outline: as §1

[7] = target: T7, CDK2/cyclin A (Homo sapiens, UniProt P24941)
T7 construct: purchased Thermo Fisher Scientific SelectScreen (plus Nanosyn / Reaction Biology for CDK/cyclin lines)
Outline: as §1

[8] = target: T8, CLK2 (Homo sapiens, UniProt P49760)
T8 construct: purchased Thermo Fisher Scientific SelectScreen (plus Nanosyn / Reaction Biology for CDK/cyclin lines)
Outline: as §1

[9] = target: T9, CSNK1A1 (CK1 alpha 1) (Homo sapiens, UniProt P48729)
T9 construct: purchased Thermo Fisher Scientific SelectScreen (plus Nanosyn / Reaction Biology for CDK/cyclin lines)
Outline: as §1

[10] = target: T10, DCAMKL1 (DCLK1) (Homo sapiens, UniProt O15075)
T10 construct: purchased Thermo Fisher Scientific SelectScreen (plus Nanosyn / Reaction Biology for CDK/cyclin lines)
Outline: as §1

[11] = target: T11, DYRK1A (Homo sapiens, UniProt Q13627)
T11 construct: purchased Thermo Fisher Scientific SelectScreen (plus Nanosyn / Reaction Biology for CDK/cyclin lines)
Outline: as §1

[12] = target: T12, DYRK4 (Homo sapiens, UniProt Q9NR20)
T12 construct: purchased Thermo Fisher Scientific SelectScreen (plus Nanosyn / Reaction Biology for CDK/cyclin lines)
Outline: as §1

[13] = target: T13, EEF2K (Homo sapiens, UniProt O00418)
T13 construct: purchased Thermo Fisher Scientific SelectScreen (plus Nanosyn / Reaction Biology for CDK/cyclin lines)
T13 sequence (O00418 whole entry): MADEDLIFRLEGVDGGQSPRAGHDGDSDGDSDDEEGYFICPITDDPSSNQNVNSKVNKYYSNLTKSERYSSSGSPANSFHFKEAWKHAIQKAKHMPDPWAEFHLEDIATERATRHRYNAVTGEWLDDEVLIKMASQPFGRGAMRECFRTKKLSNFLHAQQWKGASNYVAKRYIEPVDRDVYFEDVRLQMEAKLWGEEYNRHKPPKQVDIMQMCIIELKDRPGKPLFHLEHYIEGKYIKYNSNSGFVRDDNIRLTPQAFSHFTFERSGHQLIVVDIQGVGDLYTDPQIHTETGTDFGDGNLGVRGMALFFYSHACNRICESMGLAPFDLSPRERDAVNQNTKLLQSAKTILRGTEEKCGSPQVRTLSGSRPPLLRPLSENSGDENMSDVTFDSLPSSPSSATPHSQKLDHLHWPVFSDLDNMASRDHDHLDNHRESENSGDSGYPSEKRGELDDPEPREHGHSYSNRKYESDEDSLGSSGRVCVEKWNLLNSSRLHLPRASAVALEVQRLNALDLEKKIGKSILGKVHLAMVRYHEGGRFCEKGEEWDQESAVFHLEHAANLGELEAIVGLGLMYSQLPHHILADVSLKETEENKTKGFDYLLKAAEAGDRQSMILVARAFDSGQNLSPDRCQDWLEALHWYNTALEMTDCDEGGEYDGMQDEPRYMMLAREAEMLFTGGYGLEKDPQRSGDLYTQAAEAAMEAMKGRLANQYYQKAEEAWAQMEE
Outline: as §1

[14] = target: T14, EPHB1 (Homo sapiens, UniProt P54762)
T14 construct: purchased Thermo Fisher Scientific SelectScreen (plus Nanosyn / Reaction Biology for CDK/cyclin lines)
Outline: as §1

[15] = target: T15, FGFR3 K650E (Homo sapiens, UniProt P22607, K650E)
T15 construct: purchased Thermo Fisher Scientific SelectScreen (plus Nanosyn / Reaction Biology for CDK/cyclin lines)
Outline: as §1

[16] = target: T16, GRK6 (Homo sapiens, UniProt P43250)
T16 construct: purchased Thermo Fisher Scientific SelectScreen (plus Nanosyn / Reaction Biology for CDK/cyclin lines)
Outline: as §1

[17] = target: T17, HIPK4 (Homo sapiens, UniProt Q8NE63)
T17 construct: purchased Thermo Fisher Scientific SelectScreen (plus Nanosyn / Reaction Biology for CDK/cyclin lines)
Outline: as §1

[18] = target: T18, IKBKB (IKK beta) (Homo sapiens, UniProt O14920)
T18 construct: purchased Thermo Fisher Scientific SelectScreen (plus Nanosyn / Reaction Biology for CDK/cyclin lines)
T18 sequence (O14920 whole entry): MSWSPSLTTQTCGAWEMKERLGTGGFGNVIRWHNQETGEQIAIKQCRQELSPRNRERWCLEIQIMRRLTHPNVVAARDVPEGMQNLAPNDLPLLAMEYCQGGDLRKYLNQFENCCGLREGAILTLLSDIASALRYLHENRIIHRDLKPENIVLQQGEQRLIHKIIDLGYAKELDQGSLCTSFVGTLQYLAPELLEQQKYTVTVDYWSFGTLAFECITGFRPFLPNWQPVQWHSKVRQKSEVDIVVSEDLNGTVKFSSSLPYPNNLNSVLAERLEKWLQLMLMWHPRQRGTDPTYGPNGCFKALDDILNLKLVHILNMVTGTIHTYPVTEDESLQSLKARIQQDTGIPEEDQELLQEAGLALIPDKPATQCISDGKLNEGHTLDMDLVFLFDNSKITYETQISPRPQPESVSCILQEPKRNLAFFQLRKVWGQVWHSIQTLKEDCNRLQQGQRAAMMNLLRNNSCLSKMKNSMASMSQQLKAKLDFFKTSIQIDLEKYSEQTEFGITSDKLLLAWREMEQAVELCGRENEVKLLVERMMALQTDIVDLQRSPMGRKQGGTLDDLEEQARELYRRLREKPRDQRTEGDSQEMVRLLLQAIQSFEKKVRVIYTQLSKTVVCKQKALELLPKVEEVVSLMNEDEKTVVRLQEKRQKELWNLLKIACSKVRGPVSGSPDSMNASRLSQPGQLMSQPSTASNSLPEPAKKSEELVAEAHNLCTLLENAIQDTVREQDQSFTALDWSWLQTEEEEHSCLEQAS
Outline: as §1

[19] = target: T19, KIT V560G (Homo sapiens, UniProt P10721, V560G)
T19 construct: purchased Thermo Fisher Scientific SelectScreen (plus Nanosyn / Reaction Biology for CDK/cyclin lines)
Outline: as §1

[20] = target: T20, KSR2 (Homo sapiens, UniProt Q6VAB6)
T20 construct: purchased Thermo Fisher Scientific SelectScreen (plus Nanosyn / Reaction Biology for CDK/cyclin lines)
T20 sequence (Q6VAB6 whole entry): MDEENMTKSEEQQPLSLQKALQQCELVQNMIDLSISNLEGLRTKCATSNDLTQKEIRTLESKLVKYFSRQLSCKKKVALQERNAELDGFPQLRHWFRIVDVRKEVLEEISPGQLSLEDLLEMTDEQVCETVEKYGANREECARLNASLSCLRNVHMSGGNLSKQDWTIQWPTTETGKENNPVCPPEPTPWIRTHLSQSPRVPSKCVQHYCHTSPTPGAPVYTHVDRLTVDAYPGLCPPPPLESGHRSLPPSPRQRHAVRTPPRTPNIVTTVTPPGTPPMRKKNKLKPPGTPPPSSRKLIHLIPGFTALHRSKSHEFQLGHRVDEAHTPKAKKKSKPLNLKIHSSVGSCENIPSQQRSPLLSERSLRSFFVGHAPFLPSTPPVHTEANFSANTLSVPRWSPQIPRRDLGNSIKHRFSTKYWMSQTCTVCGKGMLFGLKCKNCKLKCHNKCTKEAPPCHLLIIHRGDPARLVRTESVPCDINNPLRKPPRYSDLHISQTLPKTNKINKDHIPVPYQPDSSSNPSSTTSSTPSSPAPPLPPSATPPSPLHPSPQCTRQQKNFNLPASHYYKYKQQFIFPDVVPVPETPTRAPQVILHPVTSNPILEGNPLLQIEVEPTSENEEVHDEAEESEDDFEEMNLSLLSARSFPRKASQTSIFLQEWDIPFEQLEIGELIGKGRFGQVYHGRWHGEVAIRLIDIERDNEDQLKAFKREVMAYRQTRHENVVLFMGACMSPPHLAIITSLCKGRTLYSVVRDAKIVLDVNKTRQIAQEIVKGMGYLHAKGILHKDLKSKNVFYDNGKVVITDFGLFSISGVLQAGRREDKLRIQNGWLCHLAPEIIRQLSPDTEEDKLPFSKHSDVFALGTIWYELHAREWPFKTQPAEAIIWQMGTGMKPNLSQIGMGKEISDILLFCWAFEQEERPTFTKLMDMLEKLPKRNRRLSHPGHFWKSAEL
Outline: as §1

[21] = target: T21, LYN A (Homo sapiens, UniProt P07948)
T21 construct: purchased Thermo Fisher Scientific SelectScreen (plus Nanosyn / Reaction Biology for CDK/cyclin lines)
Outline: as §1

[22] = target: T22, MAP4K4 (HGK) (Homo sapiens, UniProt O95819)
T22 construct: purchased Thermo Fisher Scientific SelectScreen (plus Nanosyn / Reaction Biology for CDK/cyclin lines)
Outline: as §1

[23] = target: T23, MAPK3 (ERK1) (Homo sapiens, UniProt P27361)
T23 construct: purchased Thermo Fisher Scientific SelectScreen (plus Nanosyn / Reaction Biology for CDK/cyclin lines)
Outline: as §1

[24] = target: T24, MAPK9 (JNK2) (Homo sapiens, UniProt P45984)
T24 construct: purchased Thermo Fisher Scientific SelectScreen (plus Nanosyn / Reaction Biology for CDK/cyclin lines)
Outline: as §1

[25] = target: T25, MARK2 (Homo sapiens, UniProt Q7KZI7)
T25 construct: purchased Thermo Fisher Scientific SelectScreen (plus Nanosyn / Reaction Biology for CDK/cyclin lines)
Outline: as §1

[26] = target: T26, NEK1 (Homo sapiens, UniProt Q96PY6)
T26 construct: purchased Thermo Fisher Scientific SelectScreen (plus Nanosyn / Reaction Biology for CDK/cyclin lines)
Outline: as §1

[27] = target: T27, NEK2 (Homo sapiens, UniProt P51955)
T27 construct: purchased Thermo Fisher Scientific SelectScreen (plus Nanosyn / Reaction Biology for CDK/cyclin lines)
T27 sequence (P51955 whole entry): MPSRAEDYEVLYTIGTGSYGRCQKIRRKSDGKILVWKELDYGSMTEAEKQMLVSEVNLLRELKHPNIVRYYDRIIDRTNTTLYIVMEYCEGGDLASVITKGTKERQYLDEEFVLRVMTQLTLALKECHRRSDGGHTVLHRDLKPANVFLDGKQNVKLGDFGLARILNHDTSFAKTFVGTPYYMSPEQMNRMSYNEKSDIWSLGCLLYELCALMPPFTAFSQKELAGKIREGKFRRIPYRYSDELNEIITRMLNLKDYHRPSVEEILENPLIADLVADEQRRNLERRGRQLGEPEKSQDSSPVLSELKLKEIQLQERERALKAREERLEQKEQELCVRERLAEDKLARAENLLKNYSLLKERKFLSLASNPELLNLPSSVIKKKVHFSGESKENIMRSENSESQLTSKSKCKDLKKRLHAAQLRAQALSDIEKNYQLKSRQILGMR
Outline: as §1

[28] = target: T28, PAK4 (Homo sapiens, UniProt O96013)
T28 construct: purchased Thermo Fisher Scientific SelectScreen (plus Nanosyn / Reaction Biology for CDK/cyclin lines)
Outline: as §1

[29] = target: T29, PAK6 (Homo sapiens, UniProt Q9NQU5)
T29 construct: purchased Thermo Fisher Scientific SelectScreen (plus Nanosyn / Reaction Biology for CDK/cyclin lines)
Outline: as §1

[30] = target: T30, PIM1 (Homo sapiens, UniProt P11309)
T30 construct: purchased Thermo Fisher Scientific SelectScreen (plus Nanosyn / Reaction Biology for CDK/cyclin lines)
Outline: as §1

[31] = target: T31, PRKCN (PKD3) (Homo sapiens, UniProt O94806)
T31 construct: purchased Thermo Fisher Scientific SelectScreen (plus Nanosyn / Reaction Biology for CDK/cyclin lines)
Outline: as §1

[32] = target: T32, PRKCZ (PKC zeta) (Homo sapiens, UniProt Q05513)
T32 construct: purchased Thermo Fisher Scientific SelectScreen (plus Nanosyn / Reaction Biology for CDK/cyclin lines)
T32 sequence (Q05513 whole entry): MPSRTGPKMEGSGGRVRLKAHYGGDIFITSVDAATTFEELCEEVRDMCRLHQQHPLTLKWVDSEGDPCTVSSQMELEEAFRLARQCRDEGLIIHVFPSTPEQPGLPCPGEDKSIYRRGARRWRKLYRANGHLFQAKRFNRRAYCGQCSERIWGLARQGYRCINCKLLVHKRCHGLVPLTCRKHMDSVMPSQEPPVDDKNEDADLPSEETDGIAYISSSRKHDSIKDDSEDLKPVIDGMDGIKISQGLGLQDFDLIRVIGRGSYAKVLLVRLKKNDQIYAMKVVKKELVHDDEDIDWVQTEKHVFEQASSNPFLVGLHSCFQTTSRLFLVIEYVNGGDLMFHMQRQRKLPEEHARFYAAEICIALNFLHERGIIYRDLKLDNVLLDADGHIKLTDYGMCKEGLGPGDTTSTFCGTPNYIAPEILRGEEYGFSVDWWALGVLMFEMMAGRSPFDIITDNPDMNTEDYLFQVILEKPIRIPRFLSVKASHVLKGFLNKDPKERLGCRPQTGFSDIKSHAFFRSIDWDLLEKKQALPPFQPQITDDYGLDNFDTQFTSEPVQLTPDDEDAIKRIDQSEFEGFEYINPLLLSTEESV
Outline: as §1

[33] = target: T33, PTK2 (FAK) (Homo sapiens, UniProt Q05397)
T33 construct: purchased Thermo Fisher Scientific SelectScreen (plus Nanosyn / Reaction Biology for CDK/cyclin lines)
Outline: as §1

[34] = target: T34, PTK2B (FAK2) (Homo sapiens, UniProt Q14289)
T34 construct: purchased Thermo Fisher Scientific SelectScreen (plus Nanosyn / Reaction Biology for CDK/cyclin lines)
Outline: as §1

[35] = target: T35, ROCK2 (Homo sapiens, UniProt O75116)
T35 construct: purchased Thermo Fisher Scientific SelectScreen (plus Nanosyn / Reaction Biology for CDK/cyclin lines)
Outline: as §1

[36] = target: T36, RPS6KA2 (RSK3) (Homo sapiens, UniProt Q15349)
T36 construct: purchased Thermo Fisher Scientific SelectScreen (plus Nanosyn / Reaction Biology for CDK/cyclin lines)
Outline: as §1

[37] = target: T37, RPS6KB2 (p70S6Kb) (Homo sapiens, UniProt Q9UBS0)
T37 construct: purchased Thermo Fisher Scientific SelectScreen (plus Nanosyn / Reaction Biology for CDK/cyclin lines)
Outline: as §1

[38] = target: T38, SRMS (Srm) (Homo sapiens, UniProt Q9H3Y6)
T38 construct: purchased Thermo Fisher Scientific SelectScreen (plus Nanosyn / Reaction Biology for CDK/cyclin lines)
T38 sequence (Q9H3Y6 whole entry): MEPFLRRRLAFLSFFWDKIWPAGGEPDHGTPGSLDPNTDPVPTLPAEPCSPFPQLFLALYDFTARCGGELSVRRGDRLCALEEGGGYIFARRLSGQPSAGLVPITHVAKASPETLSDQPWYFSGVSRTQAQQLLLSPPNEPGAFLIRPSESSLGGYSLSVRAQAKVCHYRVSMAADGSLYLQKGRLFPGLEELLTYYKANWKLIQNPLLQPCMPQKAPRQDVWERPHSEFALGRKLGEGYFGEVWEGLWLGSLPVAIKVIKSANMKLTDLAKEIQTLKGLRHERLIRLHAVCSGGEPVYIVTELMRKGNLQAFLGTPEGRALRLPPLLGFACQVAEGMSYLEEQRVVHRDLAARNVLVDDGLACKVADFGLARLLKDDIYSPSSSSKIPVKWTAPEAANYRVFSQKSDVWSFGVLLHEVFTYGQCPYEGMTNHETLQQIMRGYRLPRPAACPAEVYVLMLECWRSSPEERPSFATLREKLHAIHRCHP
Outline: as §1

Compound `NS(=O)(=O)c1ccc(Nc2ncc3cc4n(c3n2)C2(CCCCC2)C(=O)NN4)cc1` [INX-315] has an inhibition at 0.1 µM [1] of 3%, an inhibition at 0.1 µM [2] of 0% and an inhibition at 0.1 µM [3] of 1%. For the same compound, the inhibition at 0.1 µM [4] was 6%, the inhibition at 0.1 µM [5] was 53% and the inhibition at 0.1 µM [6] was 17%. It also gave an inhibition at 0.1 µM [7] of 100%, an inhibition at 0.1 µM [8] of 8% and an inhibition at 0.1 µM [9] of 5%. For the same compound, the inhibition at 0.1 µM [10] was 9%, the inhibition at 0.1 µM [11] was 1% and the inhibition at 0.1 µM [12] was 3%. For the same compound, the inhibition at 0.1 µM [13] was 4%, the inhibition at 0.1 µM [14] was 19% and the inhibition at 0.1 µM [15] was 31%. It also gave an inhibition at 0.1 µM [16] of 30%, an inhibition at 0.1 µM [17] of 7% and an inhibition at 0.1 µM [18] of 4%. The inhibition at 0.1 µM [19] was 27%, the inhibition at 0.1 µM [20] was 7% and the inhibition at 0.1 µM [21] was 6%. It also gave an inhibition at 0.1 µM [22] of 23%, an inhibition at 0.1 µM [23] of 2% and an inhibition at 0.1 µM [24] of -1%. It also gave an inhibition at 0.1 µM [25] of 9%, an inhibition at 0.1 µM [26] of -10% and an inhibition at 0.1 µM [27] of 3%. The inhibition at 0.1 µM [28] was 7%, the inhibition at 0.1 µM [29] was 19% and the inhibition at 0.1 µM [30] was 1%. For the same compound, the inhibition at 0.1 µM [31] was 13%, the inhibition at 0.1 µM [32] was 10% and the inhibition at 0.1 µM [33] was 8%. The inhibition at 0.1 µM [34] was 5%, the inhibition at 0.1 µM [35] was 6% and the inhibition at 0.1 µM [36] was 24%. It also gave an inhibition at 0.1 µM [37] of 4% and an inhibition at 0.1 µM [38] of 17%.
